# Assay results reported in US7030087B2, “Synthetic approach to designed chemical structures” (priority 1996, dated 2006).
# Marks after values point to notes of the source that are not given here. No end group written: not given here.
# B1: βpep-8 (peptide)
# peptide: ANIKLSVEMKLFKRHLKWKIIVKLNDGRELSLD-NH2
# modifications: not fully specified
# notes: Synthetic 33-mer designed de novo; It is entered as the monomer chain
# B2: βpep-4 (peptide)
# peptide: SIQDLNVSMKLFRKQAKWKINVKLNDGRELSLD-NH2
# modifications: also: β-sheet sandwich tetramer
# notes: as for B1
# B3: βpep-1 (peptide)
# peptide: SIQDLNVSMKLFRKQAKWKIIVKLNDGRELSLD-NH2
# modifications: not fully specified
# notes: as for B1
# How the values were obtained:
# E. coli 055:B5 endotoxin = assay: Chromogenic Limulus amoebocyte lysate test, neutralization of endotoxin in vitro; type: biochemical; details: 0.01 ng of LPS mixed with 5×10^−6M peptide
# Protocol: (§1) LPS derived from P. aeruginosa and E. coli 0111:B4 or 055:B5 was purchased from List Biological Laboratories (Campbell, Calif.) and stored at 4° C. until use. A commercially available chromogenic Limulus amoebocyte lysate test (Whittaker, Walkersville, Md.) was used to measure endotoxin levels in all solutions and serum samples. Endotoxin levels in peptide solutions were determined to be less than about 0.1 ng/ml. The capacity of BG22, βpep-3 and BG16 to neutralize E. coli 055:B5 endotoxin in vitro was determined by mixing 0.01 ng of LPS with 5×10^−6M of each peptide and results were compared to that observed for 0.01 ng of LPS alone.
# [1] = test system: Pseudomonas aeruginosa LPS; assay: Endotoxemia in vivo, serum endotoxin levels; parameters: unit not given here; details: iv 125 μg peptide preincubated with 2 μg LPS per mouse
# Protocol: as §1
# (§2) To study endotoxemia in a mammal, 500 μg of each peptide was added to 8 μg of Pseudomonas aeruginosa LPS in 2.0 ml of pyrogen-free phosphate buffered saline (PBS) ex vivo, and incubated for 30 minutes on a shaker at room temperature. Each mouse was injected via tail vein with 0.5 ml of the mixture (125 μg of BG22, BG16, or βpep-3 and 2 μg of LPS per mouse). Mice were euthanized at 30, 60, 90 and 120 minutes after injection and serum collected just prior to death was analyzed for endotoxin levels and TNF-α concentration.
# All TNF-α and endotoxin measurements in duplicate or triplicate in each experiment. In vivo experiments were performed twice to confirm reproducibility. The results obtained were compared using the unpaired Student's t-test.
# RAW 264.7 cells = assay: LPS-induced secretion of TNF-α in vitro by RAW 264.7 cells; type: cell-based; details: 200 ng/ml E. coli 0111:B4 LPS preincubated with 10^−5 M peptide, 3 hours; compared to BG22, p=0.04
# Protocol: […] RAW 264.7 cells were placed in each well of a 24-well culture plate and allowed to adhere. Immediately before LPS stimulation, medium was removed and cells were washed in serum-free Dulbecco's modified Eagle's medium (DMDM). Cells were incubated at 37° C. in a 10% CO2 atmosphere for 3 hours with: 1) DMEM alone, 2) E. coli 0111:B4 LPS alone, or 3) E. coli 0111:B4 LPS preincubated with BG22, βpep-3 or BG16. The concentration of LPS used in all groups was 200 ng/ml. To avoid non-specific inhibition of LPS-induced TNF-α secretion, 10^−5 M of each peptide was used in the experimental wells. At the end of the incubation period, macrophage supernatants were collected and assayed for TNF-α concentration.
# TNF-α concentrations were measured as described by Battafarano et al. (supra). Briefly, the TNF-α sensitive cell line WEHI was used in all assays of either RAW cell supernatant (in vitro) or serum (in vivo animal model). Concentrations were extrapolated from a standard curve based oil dilutions of purified TNF-α (Genzyme, Cambridge, Mass.), and all samples were examined in triplicate. Viability of the WEHI cells was assessed by measuring the extent of cellular crystal violet uptake by spectrophotometry at 590 nm. In this assay, absorbance was inversely correlated with cell death and lysis resulting from exposure of WEHI cells to TNF-α. […]
# [2] = test system: endotoxin from E. coli 055:B5; assay: Limulus amoebocyte lysate assay (E-TOXATE), endotoxin neutralization; type: biochemical; details: 5.0 × 10^−6 M Peptide; 0.02 U (0.2 pg) endotoxin from E. coli 055:B5; Table 4
# Protocol: The peptides were tested for their ability to neutralize endotoxin. Quantitative endotoxin activities for these peptides were measured by Limulus amoebocyte lysate assay.
# Limulus amoebocyte lysate assay: The ability of synthetic peptides to neutralize endotoxin was detected with the E-TOXATE kit manufactured by Sigma Chemicals (St. Louis, Mo.). […] Peptide or B/PI was incubated with LPS at room temperature for 5 min in 100 ul of a 1:2 dilution of pyrogen-free saline (pH 6.4). The reaction was started by addition of 100 ul of amoebocyte lysate and the final volume was 200 ul. Assuming a 10,000 molecular weight for LPS, the approximate molar ration of B/PI:LPS at neutralization was 3000 to 1.
# The peptides were tested according to the method provided above. […] BG38L was used as a positive control in these experiments.
# P. aeruginosa = assay: Bactericidal activity assay; type: cell-based, Pseudomonas aeruginosa type 1; details: 1.2 × 10^−7 M Peptide; 5 × 105 P. aeruginosa
# Source text: Bacteria: P. aeruginosa type 1 is a clinical isolate maintained in the laboratory. The isolate remains a smooth strain and was serotyped by the scheme of Homma. The Pseudomonas strain was maintained by monthly transfer on blood agar plates.
# The peptides can be assayed for bactericidal activity against a variety of organisms such as Pseudomonas aeruginosa type 1, P. cepacia ATCC 25608, E. coli B, and Staphylococcus aureus 502A by standard methods.
# Pseudomonas aeruginosa type 1 is a clinical isolate. The isolate remains a smooth strain and was serotyped by the scheme of Homma (Jpn. J. Exp. Med. 46:329, 1976). A rough strain, E. coli B and S. aureus 502A were obtained from Paul Quie, University of Minnesota (Minneapolis, Minn.). The characteristics of the S. aureus strain have been described by Shinefield et al. (Amer. J. Dis. Chil. 105:646, 1963). Pseudomonas cepacia ATCC 25608 can be purchased from the ATCC. S. aureus and E. coli were maintained on nutrient agar plates and the Pseudomonas strains were maintained on blood agar plates.
# Pyrogen-free solutions were used throughout the assay and all methods that follow. Log phase bacteria were prepared from a culture in brain heart infusion broth (Hovde et al. Infect. Immun. 54:142–148, 1986) and bacteria were washed and resuspended in saline with adjustment to an optical density at 650 nm to provide a yield of about 3×10^8 CFU/ml. Bacteria were diluted 1:10 in 0.08M citrate phosphate buffer, pH 5.6 or pH 7.0, for use in the assay. S. aureus rapidly lost viability in the pH 5.6 buffer and was studied only at pH 7.0. Bactericidal activity was determined by dose response over peptide concentrations ranging from about […] to about 4.1×10^−9M. Bactericidal activity was determined by dose response, preferably determining LD50 by linear regression.
# TNF-α = assay: Endotoxemia in vivo, serum TNF-α levels; parameters: species or system mouse; details: 90 minutes post-challenge; compared to mice receiving LPS without peptide, p<0.05
# Protocol: TNF-α concentrations were measured as described by Battafarano et al. (supra). Briefly, the TNF-α sensitive cell line WEHI was used in all assays of either RAW cell supernatant (in vitro) or serum (in vivo animal model). Concentrations were extrapolated from a standard curve based oil dilutions of purified TNF-α (Genzyme, Cambridge, Mass.), and all samples were examined in triplicate. Viability of the WEHI cells was assessed by measuring the extent of cellular crystal violet uptake by spectrophotometry at 590 nm. In this assay, absorbance was inversely correlated with cell death and lysis resulting from exposure of WEHI cells to TNF-α. The amount of TNF-α in each experimental sample was extrapolated from the standard curve.
# as §2
# All TNF-α and endotoxin measurements in duplicate or triplicate in each experiment. […]
# [3] = biological target: the molecule itself; assay: PFG NMR self-diffusion at 30 C, calibrated with lysozyme, ubiquitin and ribonuclease; self-association
# Protocol: Reson* 93:395–402, 1991) were performed on βpep peptides to assess self-association properties. Pulsed field gradient (PFG) NMR self-diffusion measurements were made on a Bruker AMX-600 using a GRASP gradient unit. NMR spectra for measurement of diffusion coefficients, D, were acquired using a 5 mm triple-resonance probe equipped with an actively shielded z-gradient coil. […] The PFG longitudinal eddy-current delay pulse-sequence was used for all self-diffusion measurements which were performed in D_2O over the temperature range 275° K to 310° K Peptide concentrations ranged from 3 mg/mL to 10 mg/mL.
# (§3) The Stokes-Einstein relationship $D = k_B T / 6\pi \eta R$ was used to relate D to the macro-molecular radius, R, which was considered to be proportional to the square root of the apparent molecular weight, Mapp^{1/2} (Cantor et al. 1980. *The behavior of biological macromolecules*. Biophysical Chemistry, part III. New York: W. H. Freeman. pp. 979–1039). Therefore, D is proportional to Mapp^{-1/2}. From these simple relationships, the ratio $Ddimer/Dmonomer$ was 0.71, which is very close to 0.72 theoretically predicted for a two sphere dimer (Wills, et al. *J. Phys. Chem.* 85: 3978–3984, 1981). Use of the Stokes-Einstein relationship is specifically derived for a hard sphere, and although the actual molecular shape of each peptide aggregate would affect the diffusion coefficient, the maximum change in the ratio $Daggregate/Dmonomer$ would be about 20% in case of an improbable linear peptide tetramer. $Mapp$ for peptides was calculated using D values of lysozyme, ribonuclease and ubiquitin as standards for monomers of known molecular weight.
# The temperature dependence of diffusion coefficients is plotted in FIG. 4. […] Moreover, for βpep-5, βpep-8 and βpep-1, the temperature dependence was linear and followed the activation energy expected for the self-diffusion of water.
# [4] = biological target: the molecule itself; assay: PFG NMR self-diffusion at 2 C; self-association
# Protocol: (§4) Pulsed-Field Gradient (PFG) NMR Self-Diffusion Measurements of β-Peptide Series Peptides Pulsed-field gradient (PFG) NMR diffusion measurements (Gibbs, et al. *J. Magn. Reson* 93:395–402, 1991) were performed on βpep peptides to assess self-association properties. Pulsed field gradient (PFG) NMR self-diffusion measurements were made on a Bruker AMX-600 using a GRASP gradient unit. NMR spectra for measurement of diffusion coefficients, D, were acquired using a 5 mm triple-resonance probe equipped with an actively shielded z-gradient coil. […]
# as §3, with “Therefore, D is proportional to Mapp^{-1/2}. From these simple relationships, the ratio $Ddimer/Dmonomer$ was 0.71, which is very close to 0.72 theoretically predicted for a two sphere dimer (Wills, et al. *J. Phys. Chem.* 85: 3978–3984, 1981).” left out
# [5] = biological target: the molecule itself; assay: PFG NMR self-diffusion, 10 C to 40 C; self-association
# Protocol: as §4
# as §3, with “Therefore, D is proportional to Mapp^{-1/2}. From these simple relationships, the ratio $Ddimer/Dmonomer$ was 0.71, which is very close to 0.72 theoretically predicted for a two sphere dimer (Wills, et al. *J. Phys. Chem.* 85: 3978–3984, 1981).” left out
# [6] = biological target: the molecule itself; assay: PFG NMR self-diffusion; self-association
# Protocol: as §4
# as §3, with “Therefore, D is proportional to Mapp^{-1/2}. From these simple relationships, the ratio $Ddimer/Dmonomer$ was 0.71, which is very close to 0.72 theoretically predicted for a two sphere dimer (Wills, et al. *J. Phys. Chem.* 85: 3978–3984, 1981).” left out
# [7] = biological target: the molecule itself; assay: NMR solution structure; self-association
# [8] = 30 minutes after LPS/Peptide injection
# [9] = 60 minutes after LPS/Peptide injection
# [10] = 90 minutes after LPS/Peptide injection
# [11] = 120 minutes after LPS/Peptide injection
Molecule,% Neutralization of Endotoxin (E. coli 055:B5 endotoxin) [%],"endotoxemia in vivo, serum endotoxin levels [1, 8]","endotoxemia in vivo, serum endotoxin levels [1, 9]","endotoxemia in vivo, serum endotoxin levels [1, 10]","endotoxemia in vivo, serum endotoxin levels [1, 11]","average molecular weight (apparent, self-associated state) [3] [Da]",further results
MNSQVCEKVTNSVSSKLQPYFQTLPVMTKI [BG16],0,">10,000","2,394","5,599",">10,000",,
HIKELQVKWKAQKRFLKMSIIVKLNDGRELSLD [βpep-3],81,11*,37*,63*,66*,,"LPS-induced TNF-α secretion (in words) (RAW 264.7 cells): significantly greater decrease in TNF-α secretion; Endotoxin Neutralization, % neutralization [2]: 79.4, n = 10%; Bactericidal Activity, % killing (P. aeruginosa): 24.9, n = 3%; serum TNF-α levels (in words) (TNF-α): decreased serum TNF-α levels"
"NANIKISGKWKAQKRFLKMSGNFDLSI [BG22, a 27mer, BPI aa 82–108]",37,7*,28*,73*,47*,,serum TNF-α levels (in words) (TNF-α): decreased serum TNF-α levels
B1,,,,,,9490,ratio of apparent molecular weight to calculated monomer molecular weight [4]: 3.7; ratio of apparent molecular weight to calculated monomer molecular weight [5]: 2.4
"KFIVTLRVIKAGPHSPTAQIIVELKNGRKLSLD-NH2 (not fully specified, It is entered as the monomer chain) [βpep-5]",,,,,,12800,ratio of average molecular weight to calculated monomer molecular weight [6]: 3.6
B2,,,,,,,binding result [7]: binds
B3,,,,,,13700,ratio of average molecular weight to calculated monomer molecular weight [6]: 3.6
